From ChEMBL document CHEMBL3217626, “Identification of 4,6-diaryl-1,4-dihydropyridines as a new class of neuroprotective agents” (Medchemcomm, 2013)

Key:
SH-SY5Y [1] = experiment: Neuroprotective activity in human SH-SY5Y cells under serum-free condition assessed as protection against potassium-induced toxicity at 5 uM after 24 hrs by MTT assay relative to control; type: functional
SH-SY5Y [2] = experiment: Neuroprotective activity in human SH-SY5Y cells assessed as inhibition of potassium-induced Ca2+ increase at 10 uM preincubated for 15 mins followed by potassium addition measured for 14 seconds by fluorescence assay relative to control; type: functional
SH-SY5Y [3] = experiment: Neuroprotective activity in human SH-SY5Y cells assessed as inhibition of potassium-induced Ca2+ increase preincubated for 15 mins followed by potassium addition measured for 14 seconds by fluorescence assay; type: functional, cell-based
SH-SY5Y [4] = experiment: Neuroprotective activity in human SH-SY5Y cells under serum-free condition assessed as cell survival at 5 uM after 24 hrs by MTT assay in presence of potassium relative to control; type: functional; conditions: read-out: Survival
SH-SY5Y [5] = experiment: Neuroprotective activity in human SH-SY5Y cells under oxygen and glucose deprived condition assessed as cell survival at 5 uM co-incubated for 4 hrs under anaerobic condition measured after 20 hrs by MTT assay relative to control; type: functional; conditions: read-out: Survival
SH-SY5Y [6] = experiment: Neuroprotective activity in human SH-SY5Y cells under oxygen and glucose deprived condition assessed as protection against oxidative stress at 5 uM co-incubated for 4 hrs under anaerobic condition measured after 20 hrs by MTT assay relative to control; type: functional
SH-SY5Y [7] = experiment: Neuroprotective activity in human SH-SY5Y cells under oxygen and glucose deprived condition assessed as cell survival at 0.3 uM co-incubated for 4 hrs under anaerobic condition measured after 20 hrs by MTT assay relative to control; type: functional; conditions: read-out: Survival
SH-SY5Y [8] = experiment: Neuroprotective activity in human SH-SY5Y cells under oxygen and glucose deprived condition assessed as protection against oxidative stress at 0.3 uM co-incubated for 4 hrs under anaerobic condition measured after 20 hrs by MTT assay relative to control; type: functional
SH-SY5Y [9] = experiment: Neuroprotective activity in human SH-SY5Y cells under serum-free condition assessed as protection against potassium-induced toxicity at 0.3 uM after 24 hrs by MTT assay relative to control; type: functional
SH-SY5Y [10] = experiment: Neuroprotective activity in human SH-SY5Y cells under serum-free condition assessed as cell survival at 0.3 uM after 24 hrs by MTT assay in presence of potassium relative to control; type: functional; conditions: read-out: Survival
SH-SY5Y [11] = experiment: Neuroprotective activity in human SH-SY5Y cells under oxygen and glucose deprived condition assessed as protection against oxidative stress at 0.1 uM co-incubated for 4 hrs under anaerobic condition measured after 20 hrs by MTT assay relative to control; type: functional
SH-SY5Y [12] = experiment: Neuroprotective activity in human SH-SY5Y cells under oxygen and glucose deprived condition assessed as cell survival at 0.1 uM co-incubated for 4 hrs under anaerobic condition measured after 20 hrs by MTT assay relative to control; type: functional; conditions: read-out: Survival

Compound | Activity (SH-SY5Y [1]) | inhibition at 10 µM (SH-SY5Y [2]) | IC50 (SH-SY5Y [3]) | inhibition (SH-SY5Y [3]) | viability at 5 µM (SH-SY5Y [4]) | viability at 5 µM (SH-SY5Y [5]) | Activity (SH-SY5Y [6]) | viability at 0.3 µM (SH-SY5Y [7]) | Activity (SH-SY5Y [8]) | Activity (SH-SY5Y [9]) | viability at 0.3 µM (SH-SY5Y [10]) | Activity (SH-SY5Y [11]) | viability at 0.1 µM (SH-SY5Y [12])
CCOC(=O)C1=C(CC)NC(c2ccccc2)=CC1c1ccccc1 (stereo unspecified) | 31.37% | 53.8% | 12.8 µM | Dose-dependent effect | 67.3% | 57.6% | 17.69% |  |  |  |  |  | 
CC1=C(C(=O)SC(C)(C)C)C(c2ccc(C)cc2)C=C(c2ccc(C)cc2)N1 (stereo unspecified) | 36.24% | 12.6% |  |  | 69.8% | 56% | 12.66% |  |  |  |  |  | 
CC(=O)C1=C(C)NC(c2ccccc2)=CC1c1ccccc1 (stereo unspecified) | 32.46% | 33.8% |  |  | 67.4% | 53.9% | 9.06% |  |  |  |  |  | 
O=C1CCCC2=C1C(c1ccccc1)C=C(c1ccccc1)N2 (stereo unspecified) | 28.23% | 41.2% |  |  | 66.4% | 62.1% | 26.8% |  |  |  |  |  | 
CC1=C(C(=O)SC(C)(C)C)C(/C(C)=C/c2ccccc2)C=C(c2ccccc2)N1 (stereo unspecified) | 35.26% | 40% |  |  | 69% | 63.9% | 35.82% |  |  |  |  |  | 
CCOC(=O)C1=C(C)NC(c2ccccc2)=CC1c1ccccc1 (stereo unspecified) | 34.65% | 32.5% |  |  | 67.6% | 60.8% | 22.76% |  |  |  |  |  | 
CC1=C(C(=O)SC(C)(C)C)C(c2ccccc2)C=C(c2ccccc2)N1 (stereo unspecified) | 34.13% | 35.1% |  |  | 68% | 61.5% | 24.91% |  |  |  |  |  | 
COc1ccc(C2C=C(c3ccccc3)NC(C)=C2C(=O)SC(C)(C)C)cc1 (stereo unspecified) | 31.27% | 52.3% | 26.8 µM | Dose-dependent effect | 66.7% | 57.6% | 17.38% |  |  |  |  |  | 
CCOC(=O)C1=C(C)NC(c2ccc(C)cc2)=CC1c1cccs1 (stereo unspecified) | 50.73% | 36.6% |  |  | 75.6% | 64.7% | 31.04% |  |  |  |  |  | 
CCOC(=O)C1=C(C)NC(c2ccc(Cl)cc2)=CC1c1ccccc1 (stereo unspecified) | 36.57% | 44.9% |  |  | 69.3% | 58.9% | 19.26% |  |  |  |  |  | 
COC(=O)C1=C(C)NC(C)=C(C(=O)OC)C1c1ccccc1[N+](=O)[O-] [NIFEDIPINE] |  | 59.8% |  |  |  |  |  | 55% | 12.4% | 15.76% | 58.7% |  | 
COc1ccc2[nH]cc(CCNC(C)=O)c2c1 [MELATONIN] |  |  |  |  |  |  |  |  |  |  |  | 28.85% | 65.8%
CC1=C(C(=O)SC(C)(C)C)C(c2ccc(C)cc2)C=C(c2ccccc2)N1 (stereo unspecified) | 30.44% | 36.8% |  |  | 67.4% | 64.7% | 31.16% |  |  |  |  |  | 
CC1=C(C(=O)SC(C)(C)C)C(c2ccc(Br)cc2)C=C(c2ccc(C)cc2)N1 (stereo unspecified) | 34.46% | 35.4% |  |  | 67.2% | 60.3% | 21.83% |  |  |  |  |  | 
